Tests used:
J774.A1 = test: Cytoprotective activity against Pseudomonas aeruginosa-induced cytotoxicity in mouse J774A1 cells assessed as LDH release at 100 uM; format: functional
[1] = target: T1, HTH-type transcriptional regulator ExsA (Pseudomonas aeruginosa (strain ATCC 15692 / PAO1 / 1C / PRS 101 / LMG12228), UniProt P26993); test: Inhibition of Pseudomonas aeruginosa PAO1 ExsA DNA binding activity
T1 sequence (P26993 whole entry): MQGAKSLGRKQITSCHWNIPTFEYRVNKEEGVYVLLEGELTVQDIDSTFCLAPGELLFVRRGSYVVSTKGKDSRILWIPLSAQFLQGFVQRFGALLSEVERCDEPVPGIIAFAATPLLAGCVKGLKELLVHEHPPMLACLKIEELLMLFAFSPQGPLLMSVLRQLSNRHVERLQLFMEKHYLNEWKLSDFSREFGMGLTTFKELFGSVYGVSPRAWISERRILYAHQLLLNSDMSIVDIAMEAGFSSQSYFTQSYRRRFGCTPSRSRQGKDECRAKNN

[2] = Chemical stability of the compound; format: physicochemical
[3] = target: T1, HTH-type transcriptional regulator ExsA; test: Inhibition of Pseudomonas aeruginosa 388 ExsA DNA binding activity
Liver microsomes = test: Metabolic stability in human liver microsome; format: ADME

| Structure (SMILES) | Activity (J774.A1) | IC50 [1] | Stability [2] | IC50 [3] | Stability (Liver microsomes) |
| --- | --- | --- | --- | --- | --- |
| CSc1ccc(/C=C/C(=O)Nc2ccc(-c3nc4ccc([N+](=O)[O-])cc4n3O)cc2)cc1 | >100% | 10.4 µM | Stable |  |  |
| CSc1ccc(/C=C/C(=O)Nc2ccc(-c3nc4ccc([N+](=O)[O-])cc4n3O)cc2)cn1 | 52.7% | 6.9 µM | Stable |  |  |
| CC(=O)c1ccc(/C=C/C(=O)Nc2ccc(-c3nc4c(CC(=O)O)cc([N+](=O)[O-])cc4n3O)cc2)cc1 | 65.4% | 3.7 µM | Stable |  |  |
| CSc1ccc(/C=C/C(=O)Nc2ccc(-c3nc4ccc(C#N)cc4n3O)cc2)cn1 | 46.6% | 3.5 µM | Stable |  |  |
| CC(=O)c1ccc(/C=C/C(=O)N(CC(N)=O)c2ccc(-c3nc4ccc([N+](=O)[O-])cc4n3O)cc2)cc1 |  | > 47.5 µM | Stable |  |  |
| CC(=O)c1ccc(/C=C/C(=O)N(CC(N)=O)c2ccc(-c3nc4ccc(C#N)cc4n3O)cc2)cc1 |  | > 49 µM | Stable |  |  |
| CC(=O)c1ccc(/C=C/C(=O)N(CC(=O)O)c2ccc(-c3nc4ccc(C#N)cc4n3O)cc2)cc1 |  | > 51 µM | Stable |  |  |
| CC(=O)c1ccc(/C=C/C(=O)Nc2ccc(-c3nc4c(CC(=O)O)cc([N+](=O)[O-])cc4n3O)cc2)cn1 | 33.1% | 4.6 µM | Stable |  |  |
| O=C(/C=C/c1ccc(C(O)(O)C(F)(F)F)cc1)Nc1ccc(-c2nc3ccc([N+](=O)[O-])cc3n2O)cc1 |  | > 100 µM | Stable |  |  |
| CSc1ccc(/C=C/C(=O)Nc2ccc(-c3nc4ccc(C#N)cc4n3O)cc2)cc1 | >100% | 7.3 µM | Stable |  |  |
| CC(=O)c1ccc(/C=C/C(=O)Nc2ccc(-c3nc4ccc([N+](=O)[O-])cc4n3O)cc2)cn1 | 12.1% |  | Stable | 7.5 µM |  |
| CC(=O)c1ccc(/C=C/C(=O)Nc2ccc(-c3nc4ccc([N+](=O)[O-])cc4n3O)cc2)cc1 | 22.4% |  | Stable | 3 µM | Stable |
| CC(=O)c1ccc(/C=C/C(=O)Nc2ccc(-c3nc4ccc(C#N)cc4n3O)cc2)cc1 | 19.2% |  | Stable | 13 µM | Stable |
| O=C(/C=C/c1ccc(C(F)(F)F)nc1)Nc1ccc(-c2nc3ccc([N+](=O)[O-])cc3n2O)cc1 | 78.5% | 6.7 µM | Stable |  |  |
| O=C(/C=C/c1ccc(-n2ccnc2)nc1)Nc1ccc(-c2nc3ccc([N+](=O)[O-])cc3n2O)cc1 |  | 31.2 µM | Stable |  |  |
| CN(C)c1ccc(/C=C/C(=O)Nc2ccc(-c3nc4ccc([N+](=O)[O-])cc4n3O)cc2)cn1 |  | > 100 µM | Stable |  |  |
| O=C(/C=C/c1ccc(F)cc1)Nc1ccc(-c2nc3ccc([N+](=O)[O-])cc3n2O)cc1 |  |  |  |  | Stable |

— ChEMBL document CHEMBL1155481, “N-Hydroxybenzimidazole inhibitors of ExsA MAR transcription factor in Pseudomonas aeruginosa: In vitro anti-virulence activity and metabolic stability” (Bioorg Med Chem Lett, 2010)
